This is an account of results in PubChem BioAssay AID1259407 (Chemical Carcinogenesis Research Information System (CCRIS), 2018).

Molecules are shown by their SMILES. Active and inactive are the calls of the source. How the calls were made is not given here.

For this data set, the system named is CCRIS mutagenicity, Ames/micronucleus/aberration tests. Put plainly: CCRIS mutagenicity studies.
Setting [1] is: Test System: AMES SALMONELLA TYPHIMURIUM, Strain/Indicator: TA98, Metabolic Activation: NONE, Method: STANDARD PLATE.
The mark [2] stands for this setting: Test System: AMES SALMONELLA TYPHIMURIUM, Strain/Indicator: TA98, Metabolic Activation: RAT, LIVER, S-9, AROCLOR 1254, Method: STANDARD PLATE.
The mark [3] stands for this setting: Test System: AMES SALMONELLA TYPHIMURIUM, Strain/Indicator: TA100, Metabolic Activation: NONE, Method: STANDARD PLATE.
The mark [4] stands for this setting: Test System: AMES SALMONELLA TYPHIMURIUM, Strain/Indicator: TA100, Metabolic Activation: RAT, LIVER, S-9, AROCLOR 1254, Method: STANDARD PLATE.
The mark [5] stands for this setting: Test System: AMES SALMONELLA TYPHIMURIUM, Strain/Indicator: TA98, Metabolic Activation: NONE, Method: PREINCUBATION
Where [6] appears, read: Test System: AMES SALMONELLA TYPHIMURIUM, Strain/Indicator: TA100, Metabolic Activation: NONE, Method: PREINCUBATION

In the case of `CC(C)C1=CC2=CC[C@@H]3[C@](C)(CCC[C@@]3(C)C(=O)O)[C@H]2CC1`, the mutagenic call is “inactive; negative” (Test System: AMES SALMONELLA TYPHIMURIUM, Strain/Indicator: TA98, Metabolic Activation: HAMSTER, LIVER, S-9, AROCLOR 1254, Method: STANDARD PLATE); “inactive; negative” under setting [1]; “inactive; negative” under setting [2]; “inactive; negative” (Test System: AMES SALMONELLA TYPHIMURIUM, Strain/Indicator: TA100, Metabolic Activation: HAMSTER, LIVER, S-9, AROCLOR 1254, Method: STANDARD PLATE); “inactive; negative” under setting [3]; “inactive; negative” under setting [4]. For the same compound, the mutagenic call runs as follows: (Test System: AMES SALMONELLA TYPHIMURIUM, Strain/Indicator: TA1535, Metabolic Activation: HAMSTER, LIVER, S-9, AROCLOR 1254, Method: STANDARD PLATE) “inactive; negative”; (Test System: AMES SALMONELLA TYPHIMURIUM, Strain/Indicator: TA1535, Metabolic Activation: NONE, Method: STANDARD PLATE) “inactive; negative”; (Test System: AMES SALMONELLA TYPHIMURIUM, Strain/Indicator: TA1535, Metabolic Activation: RAT, LIVER, S-9, AROCLOR 1254, Method: STANDARD PLATE) “inactive; negative”; (Test System: AMES SALMONELLA TYPHIMURIUM, Strain/Indicator: TA1537, Metabolic Activation: HAMSTER, LIVER, S-9, AROCLOR 1254, Method: STANDARD PLATE) “inactive; negative”; (Test System: AMES SALMONELLA TYPHIMURIUM, Strain/Indicator: TA1537, Metabolic Activation: NONE, Method: STANDARD PLATE) “inactive; negative”; (Test System: AMES SALMONELLA TYPHIMURIUM, Strain/Indicator: TA1537, Metabolic Activation: RAT, LIVER, S-9, AROCLOR 1254, Method: STANDARD PLATE) “inactive; negative”. Further, the mutagenic call is, setting by setting: (Test System: AMES SALMONELLA TYPHIMURIUM, Strain/Indicator: TA1538, Metabolic Activation: HAMSTER, LIVER, S-9, AROCLOR 1254, Method: STANDARD PLATE) “inactive; negative”; (Test System: AMES SALMONELLA TYPHIMURIUM, Strain/Indicator: TA1538, Metabolic Activation: NONE, Method: STANDARD PLATE) “inactive; negative”; (Test System: AMES SALMONELLA TYPHIMURIUM, Strain/Indicator: TA1538, Metabolic Activation: RAT, LIVER, S-9, AROCLOR 1254, Method: STANDARD PLATE) “inactive; negative”; (Test System: MOUSE LYMPHOMA, Strain/Indicator: L5178Y (TK+/TK-), Metabolic Activation: NONE, Method: SUSPENSION/PLATE) “active; positive. reevaluation of results: positive”; (Test System: MOUSE LYMPHOMA, Strain/Indicator: L5178Y (TK+/TK-), Metabolic Activation: RAT, LIVER, S-9, AROCLOR 1254, Method: SUSPENSION/PLATE) “inactive; negative. reevaluation of results: negative”.
With `COc1ccc2c(CBr)cc(=O)oc2c1`, the mutagenic call is “inactive; negative” under setting [5]; “inactive; negative” (Test System: AMES SALMONELLA TYPHIMURIUM, Strain/Indicator: TA98, Metabolic Activation: RAT, LIVER, S-9, PCB, Method: PREINCUBATION); “inactive; negative” under setting [6]; “inactive; negative” (Test System: AMES SALMONELLA TYPHIMURIUM, Strain/Indicator: TA100, Metabolic Activation: RAT, LIVER, S-9, PCB, Method: PREINCUBATION); “inactive; negative” (Test System: E. COLI, Strain/Indicator: WP2 UVRA, Metabolic Activation: NONE, Method: PREINCUBATION).
For the compound `Cn1c(N)nc2nc3ncccc3cc21`, the mutagenic call reads like this: (Test System: AMES SALMONELLA TYPHIMURIUM, Strain/Indicator: TA98, Metabolic Activation: RAT, LIVER, S-9, AROCLOR 1254A, Method: STANDARD PLATE) “inactive; negative”; (Test System: AMES SALMONELLA TYPHIMURIUM, Strain/Indicator: YG1024, Metabolic Activation: RAT, LIVER, S-9, AROCLOR 1254A, Method: STANDARD PLATE) “active; positive”.
On to `O=[N+]([O-])c1cccc(-c2ccccc2)c1O`, for which the mutagenic call under setting [5] was “inactive; negative”.
On to `COC1(O[C@H]2CC[C@H]3[C@@H]4CC[C@H]5C[C@@H]6S[C@@H]6C[C@]5(C)[C@H]4CC[C@]23C)CCCC1`, for which the mutagenic call by setting is: under setting [1], “inactive; negative”; (Test System: AMES SALMONELLA TYPHIMURIUM, Strain/Indicator: TA98, Metabolic Activation: S-9, Method: STANDARD PLATE) “inactive; negative”; under setting [3], “inactive; negative”; (Test System: AMES SALMONELLA TYPHIMURIUM, Strain/Indicator: TA100, Metabolic Activation: S-9, Method: STANDARD PLATE) “inactive; negative”; (Test System: AMES SALMONELLA TYPHIMURIUM, Strain/Indicator: TA1537, Metabolic Activation: S-9, Method: STANDARD PLATE) “inactive; negative”; (Test System: E. COLI, Strain/Indicator: WP2 (HCR), Metabolic Activation: NONE, Method: STANDARD PLATE) “inactive; negative”. Moreover, the mutagenic call (Test System: E. COLI, Strain/Indicator: WP2 (HCR), Metabolic Activation: S-9, Method: STANDARD PLATE) was “inactive; negative”.
Take `OCC1CCCO1` (configuration not stated): the mutagenic call by setting is: under setting [5], “inactive; negative”; (Test System: AMES SALMONELLA TYPHIMURIUM, Strain/Indicator: TA98, Metabolic Activation: RAT, LIVER, S-9, AROCLOR 1254, Method: PREINCUBATION) “inactive; negative”; under setting [6], “inactive; negative”; (Test System: AMES SALMONELLA TYPHIMURIUM, Strain/Indicator: TA100, Metabolic Activation: RAT, LIVER, S-9, AROCLOR 1254, Method: PREINCUBATION) “inactive; negative”; (Test System: AMES SALMONELLA TYPHIMURIUM, Strain/Indicator: TA102, Metabolic Activation: NONE, Method: PREINCUBATION) “inactive; negative”; (Test System: AMES SALMONELLA TYPHIMURIUM, Strain/Indicator: TA102, Metabolic Activation: RAT, LIVER, S-9, AROCLOR 1254, Method: PREINCUBATION) “inactive; negative”.
On to `c1ccc2c(c1)Cc1c-2ccc2ccc3ccccc3c12`, for which the mutagenic call under setting [4] was “active; positive”.
Consider `O=C1C(c2[nH]c3ccccc3c2O)=Nc2ccccc21`, for which the mutagenic call under setting [1] was “inactive; negative”, the mutagenic call under setting [2] is “active; positive”, the mutagenic call under setting [3] is “inactive; negative” and the mutagenic call under setting [4] was “inactive; negative”.
On to `Nc1ccc2ncsc2c1`, for which the mutagenic call runs as follows: under setting [6], “inactive; negative”; (Test System: AMES SALMONELLA TYPHIMURIUM, Strain/Indicator: TA100, Metabolic Activation: RAT LIVER S-9, PHENOBARBITAL AND 5,6-BENZOFLAVONE, Method: PREINCUBATION) “inactive; negative”; (Test System: AMES SALMONELLA TYPHIMURIUM, Strain/Indicator: YG1029, Metabolic Activation: NONE, Method: PREINCUBATION) “inactive; negative”; (Test System: AMES SALMONELLA TYPHIMURIUM, Strain/Indicator: YG1029, Metabolic Activation: RAT LIVER S-9, PHENOBARBITAL AND 5,6-BENZOFLAVONE, Method: PREINCUBATION) “active; positive”.
